The target in this experiment is hSSTR2 (Homo sapiens (Human), UniProt P30874). Briefly: Intracellular calcium mobilization assay (FLIPR Calcium 4), hSSTR2.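 As to all read-outs here: agonist activity read as intracellular calcium rise in cells expressing human SSTR2, loaded with a calcium-sensitive dye for 60 min at 37 °C, measured by FLIPR.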 The following applies: for Emax: read-out: hSSTR2 % Emax ± SEM; for improvement in EC50 over Reference Compound A: Student's t-test, one-tailed, p <0.05. The experiment is classed as cell-based.

Numbered stars: 1 amine (or outer) side, 2 acyl side, 3 side chain; on linkers, the order of the positions; unused ones are H or OH. Bridge positions count the residues as written; N and C are the ends. Square brackets hold non-standard residues; d marks the D form. Peptide text beside a SMILES is read from it. * marks the point of attachment. X1 = CN1C[C@H](CSCCN(CCSC[C@@H]2C[C@@H]3c4cccc5[nH]cc(c45)C[C@H]3N(C)C2)[C@H](CCCCN[*:2])C(=O)[*:1])C[C@@H]2c3cccc4[nH]cc(c34)C[C@H]21; X2 = CN1C[C@H](CSCC(=O)*)C[C@@H]2c3cccc4[nH]cc(c34)C[C@H]21; Phe(4-F) = N[C@@H](Cc1ccc(F)cc1)C(=O)O; 4Pal = N[C@@H](Cc1ccncc1)C(=O)O

Chain of hSSTR2 (P30874 whole entry): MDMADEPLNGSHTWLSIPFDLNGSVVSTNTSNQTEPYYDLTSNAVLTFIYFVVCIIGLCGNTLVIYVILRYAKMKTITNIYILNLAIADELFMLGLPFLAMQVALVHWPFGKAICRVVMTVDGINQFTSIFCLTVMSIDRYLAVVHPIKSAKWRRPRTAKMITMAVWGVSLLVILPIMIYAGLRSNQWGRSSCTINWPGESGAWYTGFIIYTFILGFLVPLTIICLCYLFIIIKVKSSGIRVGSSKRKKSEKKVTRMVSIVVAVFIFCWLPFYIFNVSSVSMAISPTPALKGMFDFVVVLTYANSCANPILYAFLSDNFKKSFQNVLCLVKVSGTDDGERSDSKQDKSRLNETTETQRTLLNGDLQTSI
Method: The ability of select compounds according to the present invention to activate hSSTR2 and hDRD2 was determined by the intracellular calcium mobilization assay using FLIPR Calcium 4 assay kit (Molecular Devices).
Cells expressing hSSTR2 or hDRD2 were plated in 384-well microplates in tissue culture media and incubated for 16-24 hours at 37° C. in a humidified atmosphere with 5% CO2. Medium was replaced by loading buffer containing Hank's buffered saline, 20 mM HEPES, 2.5 mM probenecid and Calcium 4 dye, and the plates were incubated at 37° C. for 60 minutes.

As to `CC(=O)N(CCCN[C@@H]1CCCCNC(=O)[C@H](Cc2ccc(F)cc2)NC(=O)[C@H]([C@@H](C)O)NC(=O)[C@H](CCCCN)NC(=O)[C@@H](Cc2c[nH]c3ccccc23)NC(=O)[C@H](Cc2ccccc2)NC(=O)[C@H](Cc2ccccc2)NC(=O)[C@H](CCCNC(=N)N)NC1=O)C[C@@H]1C[C@@H]2c3cccc4[nH]cc(c34)C[C@H]2N(C)C1` [Compound 29A, 3-[N-acetyl-(D-6-methyl-8β-ergolinylmethyl)]-aminopropionyl-psi(CH2NH)-cyclo(DLys-Arg-Phe-Phe-DTrp-Lys-Thr-4FPhe)], the Emax was determined as 100 ± 23.2%.

Regarding `C[C@@H](O)[C@@H]1NC(=O)[C@H](CCCCN)NC(=O)[C@@H](Cc2c[nH]c3ccccc23)NC(=O)[C@H](Cc2ccccc2)NC(=O)[C@H](Cc2ccccc2)NC(=O)[C@H](CCCNC(=N)N)NC(=O)[C@H](NCCSC[C@@H]2C[C@@H]3c4cccc5[nH]cc(c45)C[C@H]3N(C)C2)CCCCNC(=O)[C@H](Cc2ccccc2F)NC1=O` [Compound 6D, Dop1-psi(CH2NH)-cyclo(DLys-Arg-Phe-Phe-DTrp-Lys-Thr-2FPhe)], the Emax stood at 96.9 ± 8.7%.

As for `C[C@@H](O)[C@@H]1NC(=O)[C@H](CCCCN)NC(=O)[C@@H](Cc2c[nH]c3ccccc23)NC(=O)[C@H](Cc2ccccc2)NC(=O)[C@H](Cc2ccccc2)NC(=O)[C@H](CCCNC(=N)N)NC(=O)[C@H](NCCSC[C@@H]2C[C@@H]3c4cccc5[nH]cc(c45)C[C@H]3N(C)C2)CCCCNC(=O)[C@H](Cc2cccc(F)c2)NC1=O` [Compound 6C, Dop1-psi(CH2NH)-cyclo(DLys-Arg-Phe-Phe-DTrp-Lys-Thr-3FPhe)], the Emax was found to be 97.7 ± 6.9%.

Regarding `C[C@@H](O)[C@@H]1NC(=O)[C@H](CCCCN)NC(=O)[C@@H](Cc2c[nH]c3ccccc23)NC(=O)[C@H](Cc2ccccc2)NC(=O)[C@H](Cc2ccccc2)NC(=O)[C@H](CCCNC(=N)N)NC(=O)[C@H](NC(=O)CSC[C@@H]2C[C@@H]3c4cccc5[nH]cc(c45)C[C@H]3N(C)C2)CCCCNC(=O)[C@H](Cc2ccc(F)cc2)NC1=O` [Compound 34, Dop1-cyclo(DLys-Arg-Phe-Phe-DTrp-Lys-Thr-4FPhe)] (X2-[dK]RFF[dW]KT[Phe(4-F)]; lactam 1-C), the maximum response (Emax) was found to be 95.1 ± 7.1%.

As to `C[C@@H](O)[C@@H]1NC(=O)[C@H](CCCCN)NC(=O)[C@@H](Cc2c[nH]c3ccccc23)NC(=O)[C@H](Cc2ccncc2)NC(=O)[C@H](Cc2ccccc2)NC(=O)[C@H](CCCNC(=N)N)NC(=O)[C@H](NCCSC[C@@H]2C[C@@H]3c4cccc5[nH]cc(c45)C[C@H]3N(C)C2)CCCCNC(=O)[C@H](Cc2ccccc2)NC1=O` [Compound 23, Dop1-psi(CH2NH)-cyclo(DLys-Arg-Phe-4Pal-DTrp-Lys-Thr-Phe)], the “improvement in EC50 over Reference Compound A” value is “statistically significant improvement” and the Emax was found to be 95.4 ± 3.3%.

Turning to `C[C@@H](O)[C@@H]1NC(=O)[C@H](CCCCN)NC(=O)[C@@H](Cc2c[nH]c3ccccc23)NC(=O)[C@H](Cc2ccncc2)NC(=O)[C@H](Cc2ccccc2)NC(=O)[C@H](CCCNC(=N)N)NC(=O)[C@H](NC[C@H](Cc2ccc(O)cc2)NC(=O)CS(=O)(=O)C[C@@H]2C[C@@H]3c4cccc5[nH]cc(c45)C[C@H]3N(C)C2)CCCCNC(=O)[C@H](Cc2ccccc2)NC1=O` [Compound 21, Dop1(SO2)-Tyr-psi(CH2NH)-cyclo(DLys-Arg-Phe-4Pal-DTrp-Lys-Thr-Phe)], the Emax worked out at 100 ± 1.8%.

For `C[C@@H](O)[C@@H]1NC(=O)[C@H](CCCCN)NC(=O)[C@@H](Cc2c[nH]c3ccccc23)NC(=O)[C@H](Cc2ccncc2)NC(=O)[C@H](Cc2ccccc2)NC(=O)[C@H](CCCNC(=N)N)NC(=O)[C@H](NC(=O)CSC[C@@H]2C[C@@H]3c4cccc5[nH]cc(c45)C[C@H]3N(C)C2)CCCCNC(=O)[C@H](Cc2ccc(O)cc2)NC1=O` [Compound 25, Dop1-cyclo(DLys-Arg-Phe-4Pal-DTrp-Lys-Thr-Tyr)] (X2-[dK]RF[4Pal][dW]KTY; lactam 1-C), the “improvement in EC50 over Reference Compound A” value was “statistically significant improvement” and the Emax came to 93.9 ± 6.7%.

Regarding `C[C@@H](O)[C@@H]1NC(=O)[C@H](CCCCN)NC(=O)[C@@H](Cc2c[nH]c3ccccc23)NC(=O)[C@H](Cc2ccncc2)NC(=O)[C@H](Cc2ccccc2)NC(=O)[C@H](CCCNC(=N)N)NC(=O)[C@H](NC[C@H](Cc2ccc(O)cc2)NC(=O)C[S+]([O-])C[C@@H]2C[C@@H]3c4cccc5[nH]cc(c45)C[C@H]3N(C)C2)CCCCNC(=O)[C@H](Cc2ccccc2)NC1=O` (stereo partly drawn) [Compound 15, Dop1(SO)-Tyr-psi(CH2NH)-cyclo(DLys-Arg-Phe-4Pal-DTrp-Lys-Thr-Phe)], the Emax amounted to 99.9 ± 1.9%.

`C[C@@H](O)[C@@H]1NC(=O)[C@H](CCCCN)NC(=O)[C@@H](Cc2c[nH]c3ccccc23)NC(=O)[C@H](Cc2ccccc2)NC(=O)[C@H](Cc2ccccc2)NC(=O)[C@H](CCCNC(=N)N)NC(=O)[C@H](NCC[S+]([O-])C[C@@H]2C[C@@H]3c4cccc5[nH]cc(c45)C[C@H]3N(C)C2)CCCCNC(=O)[C@H](Cc2ccc(F)cc2)NC1=O` (stereo partly drawn) [Compound 14, Dop1(SO)-psi(CH2NH)-cyclo(DLys-Arg-Phe-Phe-DTrp-Lys-Thr-4FPhe)]: the Emax was 102 ± 2.2%.

For `C[C@@H](O)[C@@H]1NC(=O)[C@H](CCCCN)NC(=O)[C@@H](Cc2c[nH]c3ccccc23)NC(=O)[C@H](Cc2ccccc2)NC(=O)[C@H](Cc2ccccc2)NC(=O)[C@H](CCCNC(=N)N)NC(=O)[C@H](NCCSC[C@@H]2C[C@@H]3c4cccc5[nH]cc(c45)C[C@H]3N(C)C2)CCCCNC(=O)[C@H](Cc2c(F)c(F)c(F)c(F)c2F)NC1=O` [Compound 6E, Dop1-psi(CH2NH)-cyclo(DLys-Arg-Phe-Phe-DTrp-Lys-Thr-2,3,4,5,6FPhe)], the Emax amounted to 90.4 ± 6.8%.

As to `C[C@@H](O)[C@@H]1NC(=O)[C@H](CCCCN)NC(=O)[C@@H](Cc2c[nH]c3ccccc23)NC(=O)[C@H](Cc2ccccc2)NC(=O)[C@H](Cc2ccccc2)NC(=O)[C@H](CCCNC(=N)N)NC(=O)[C@H](NC[C@H](Cc2ccc(O)cc2)NC(=O)C[S+]([O-])C[C@@H]2C[C@@H]3c4cccc5[nH]cc(c45)C[C@H]3N(C)C2)CCCCNC(=O)[C@H](Cc2ccc(F)cc2)NC1=O` (stereo partly drawn) [Compound 13, Dop1(SO)-Tyr-psi(CH2NH)-cyclo(DLys-Arg-Phe-Phe-DTrp-Lys-Thr-4FPhe)], the Emax was found to be 100 ± 0.7%.

Regarding `C[C@@H](O)[C@@H]1NC(=O)[C@H](CCCCN)NC(=O)[C@@H](Cc2c[nH]c3ccccc23)NC(=O)[C@H](Cc2ccncc2)NC(=O)[C@H](Cc2ccccc2)NC(=O)[C@H](CCCNC(=N)N)NC(=O)[C@H](N(CCSC[C@@H]2C[C@@H]3c4cccc5[nH]cc(c45)C[C@H]3N(C)C2)CCSC[C@@H]2C[C@@H]3c4cccc5[nH]cc(c45)C[C@H]3N(C)C2)CCCCNC(=O)[C@H](Cc2ccccc2)NC1=O` [Compound 29, bis[Dop1-psi(CH2N)]-cyclo(DLys-Arg-Phe-4Pal-DTrp-Lys-Thr-Phe)] (RF[4Pal][dW]KTF; linker N-C via X1), the “improvement in EC50 over Reference Compound A” value is “statistically significant improvement” and the Emax was 97 ± 4.9%.

Values taken from patent US8952128B2, “Somatostatin-dopamine chimeric analogs” (priority 2012, dated 2015).
